For the assay, the target named is T1, HIPK3 (YAK1) (Homo sapiens, UniProt Q9H422).
T1 construct: purchased Thermo Fisher Scientific (Life Technologies) SelectScreen
Briefly: SelectScreen Z'LYTE. Format: biochemical. An outline of the steps:
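SelectScreen broad panel; activity (Z'LYTE, Adapta) plus binding formats. ATP: Km app for CSF1R Z'LYTE; 10 for CAMK1 Adapta. Readout = % per kinase.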

T1 sequence (Q9H422 whole entry): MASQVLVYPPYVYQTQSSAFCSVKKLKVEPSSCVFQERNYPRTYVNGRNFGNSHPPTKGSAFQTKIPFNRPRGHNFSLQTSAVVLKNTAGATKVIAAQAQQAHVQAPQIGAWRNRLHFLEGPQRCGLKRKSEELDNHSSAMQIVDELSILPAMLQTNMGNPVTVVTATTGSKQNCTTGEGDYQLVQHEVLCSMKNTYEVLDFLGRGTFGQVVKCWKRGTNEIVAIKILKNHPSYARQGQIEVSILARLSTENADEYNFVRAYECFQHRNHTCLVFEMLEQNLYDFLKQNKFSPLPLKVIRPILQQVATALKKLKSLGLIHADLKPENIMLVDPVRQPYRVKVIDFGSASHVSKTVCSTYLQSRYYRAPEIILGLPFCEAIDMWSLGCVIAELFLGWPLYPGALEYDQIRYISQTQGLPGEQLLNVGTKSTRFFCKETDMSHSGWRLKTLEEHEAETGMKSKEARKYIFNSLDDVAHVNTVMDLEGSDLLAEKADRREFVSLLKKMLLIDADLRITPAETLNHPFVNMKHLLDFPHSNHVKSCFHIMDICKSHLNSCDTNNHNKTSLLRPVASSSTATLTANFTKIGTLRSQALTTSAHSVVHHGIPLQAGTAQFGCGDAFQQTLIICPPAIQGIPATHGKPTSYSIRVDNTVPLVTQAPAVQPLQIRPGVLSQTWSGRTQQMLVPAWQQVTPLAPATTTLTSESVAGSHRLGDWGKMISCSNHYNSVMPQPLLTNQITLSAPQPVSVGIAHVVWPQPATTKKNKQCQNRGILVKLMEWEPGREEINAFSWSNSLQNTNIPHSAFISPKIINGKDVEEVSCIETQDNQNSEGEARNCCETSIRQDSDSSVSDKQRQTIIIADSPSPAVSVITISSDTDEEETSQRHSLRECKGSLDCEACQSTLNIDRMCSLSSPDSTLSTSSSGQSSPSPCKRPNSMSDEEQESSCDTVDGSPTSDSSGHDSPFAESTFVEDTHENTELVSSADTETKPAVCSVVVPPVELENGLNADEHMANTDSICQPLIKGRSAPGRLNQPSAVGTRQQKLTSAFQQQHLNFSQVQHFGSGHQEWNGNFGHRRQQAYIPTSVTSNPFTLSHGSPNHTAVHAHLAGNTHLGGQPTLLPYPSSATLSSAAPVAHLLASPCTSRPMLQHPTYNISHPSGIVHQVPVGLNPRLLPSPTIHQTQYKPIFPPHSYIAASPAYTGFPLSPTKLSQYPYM

The term inhibition denotes the share of the control response that was lost under treatment. High values mean a strong effect, low ones a weak effect. In turn, `CN(C(=O)CN1CCOCC1)c1ccc2sc3c(-c4cccc5c(=O)cc(N6CC7CCC(C6)O7)oc45)cccc3c2c1` [NU5455] registered an inhibition at 1 µM of 2.5%.

These data come from publication PMC6934184, “Selective DNA-PKcs inhibition extends the therapeutic index of localized radiotherapy and chemotherapy” (The Journal of Clinical Investigation, 2019).
